Measured values reported in ChEMBL document CHEMBL1128746, “Aminoalkylindoles: structure-activity relationships of novel cannabinoid mimetics” (J Med Chem, 1995).

Assays:
[1] = target: Cannabinoid receptor 1 (Rattus norvegicus) (UniProt P20272); experiment: (§1) […] [3H]WIN-55212 binding to Cannabinoid receptor 1 in rat cerebellum membranes.; assay type: cell membranes; settings: Membrane, concentration not given here
[2] = species on record: Mus musculus; experiment: Concentration required to inhibit electrically induced contractions in isolated mouse vas deferens preparation in vitro; assay type: functional
[3] = target: Cannabinoid receptor 1 (Rattus norvegicus, UniProt P20272); experiment: as §1; assay type: cell membranes, Membrane
Sequence of Cannabinoid receptor 1 (P20272 whole entry): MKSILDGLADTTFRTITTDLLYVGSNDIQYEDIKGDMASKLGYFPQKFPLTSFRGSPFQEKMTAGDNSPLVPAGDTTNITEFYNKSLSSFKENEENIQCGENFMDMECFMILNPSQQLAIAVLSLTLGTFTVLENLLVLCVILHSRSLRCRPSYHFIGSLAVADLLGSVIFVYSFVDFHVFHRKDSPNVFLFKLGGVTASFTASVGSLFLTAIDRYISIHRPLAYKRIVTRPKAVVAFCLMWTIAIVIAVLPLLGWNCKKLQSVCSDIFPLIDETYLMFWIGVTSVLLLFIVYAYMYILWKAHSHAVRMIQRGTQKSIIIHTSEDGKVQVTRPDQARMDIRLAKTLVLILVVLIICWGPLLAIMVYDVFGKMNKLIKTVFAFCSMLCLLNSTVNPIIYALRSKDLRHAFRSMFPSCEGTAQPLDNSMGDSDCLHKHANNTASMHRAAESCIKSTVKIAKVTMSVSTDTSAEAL

Sequence of Cannabinoid receptor 1 (Rattus norvegicus) (P20272 whole entry): as above

| Structure (SMILES) | inhibition [1] | IC50 ([2]; Mus musculus) | IC50 [3] | IC50 [2] |
| --- | --- | --- | --- | --- |
| Cc1c(C(=O)c2cccc3ccccc23)c2ccccc2n1C(C)CN1CCOCC1 (racemic; form 1) [listing 1 of 2 here] | 79% |  |  |  |
| Cc1c(C(=O)c2cccc3ccccc23)c2ccccc2n1CCN1CCN(C)CC1 |  | > 10000 nM |  |  |
| Cc1c(C(=O)c2cccc3ccccc23)c2ccccc2n1CCN1CCNCC1 | -9% |  |  |  |
| COc1ccc(C(=O)c2c(C)n(CCN3CCOCC3)c3ccccc23)cc1 [PRAVADOLINE] |  | 319 nM | 3150 nM |  |
| COc1ccc(C(=O)c2c(C)[nH]c3ccccc23)cc1 |  | 27 nM |  |  |
| COc1cccc2c(C(=O)c3cccc4ccccc34)c(C)n(CCN3CCOCC3)c12 |  |  | 10 nM |  |
| O=C(c1cccc2ccccc12)c1cn(CCN2CCOCC2)c2ccc(F)cc12 |  | 7.3 nM | 35 nM |  |
| O=C(c1cccc2ccccc12)c1cn(CCN2CCOCC2)c2ccccc12 |  | 6.3 nM | 7.8 nM |  |
| COc1ccc(C(=O)c2c(O)n(CCN3CCOCC3)c3ccccc23)cc1 | 1% |  |  |  |
| O=C(c1cn(CCN2CCOCC2)c2ccccc12)c1cccc2ccoc12 |  | 4.6 nM | 18 nM |  |
| O=C(c1cccc2occc12)c1cn(CCN2CCOCC2)c2ccccc12 |  | 7.7 nM | 24 nM |  |
| COc1ccc(C(=O)c2c(C)n(CCN3CCOCC3C)c3ccccc23)cc1 (stereo unspecified) |  | > 10000 nM |  |  |
| COc1ccc(C(=O)c2c(F)n(CCN3CCOCC3)c3ccccc23)cc1 | 7% |  |  |  |
| Cc1cccc(C(=O)c2c(C)n(CCN3CCOCC3)c3ccccc23)c1 |  |  | 606 nM |  |
| Cc1c(C(=O)c2cccc3cccnc23)c2ccccc2n1CCN1CCOCC1 |  | 129 nM | 274 nM |  |
| CCc1ccc(C(=O)c2c(C)n(CCN3CCOCC3)c3ccccc23)cc1 |  | 71 nM | 306 nM |  |
| COc1ccc(C(=O)c2c(C)n(CCN3CCOCC3)c3cc(C)ccc23)cc1 |  | > 10000 nM | 1880 nM |  |
| COc1ccc(C(=O)c2c(C)n(CC(=O)O)c3ccccc23)cc1 |  | > 10000 nM |  |  |
| CC(CN1CCOCC1)n1cc(C(=O)c2cccc3ccccc23)c2ccccc21 (stereo in doubt; -106) |  |  | 33 nM | 12 nM |
| COc1ccc(C(=O)c2c(C)n(CCN3CCOC(C)C3)c3ccccc23)cc1 (stereo unspecified) |  | > 10000 nM |  |  |
| COc1ccc(C(=O)c2c(C#N)n(CCN3CCOCC3)c3ccccc23)cc1 | 3% |  |  |  |
| Cc1c(C(=O)c2cccc3ccccc23)c2ccccc2n1CCN1CCOC(C)C1 (stereo unspecified) |  | 30 nM | 59 nM |  |
| Cc1c(C(=O)c2cc3ccccc3o2)c2ccccc2n1CCN1CCOCC1 |  | 324 nM | 416 nM |  |

| Structure (SMILES) | inhibition [1] | IC50 ([2]; Mus musculus) | IC50 [3] | IC50 [2] |
| --- | --- | --- | --- | --- |
| O=C(c1ccc2ccoc2c1)c1cn(CCN2CCOCC2)c2ccccc12 |  | 40 nM | 304 nM |  |
| Cc1c(C(=O)c2ccc3ncccc3c2)c2ccccc2n1CCN1CCOCC1 |  | 103 nM | 499 nM |  |
| CCN(CC)CCn1c(C)c(C(=O)c2ccc(OC)cc2)c2ccccc21 |  | > 10000 nM |  |  |
| O=C(c1cccc2ccccc12)c1cn(CCN2CCOCC2)c2ccc(O)cc12 |  | 20 nM | 70 nM |  |
| COc1ccc(C(=O)c2c(C)n(CCN3CCOCC3)c3ccccc23)c2ccccc12 |  | 23 nM | 55 nM |  |
| Cc1c(C(=O)c2ccc(C(C)(C)C)cc2)c2ccccc2n1CCN1CCOCC1 | 56% |  |  |  |
| O=C(c1c2ccccc2cc2ccccc12)c1cn(CCN2CCOCC2)c2ccccc12 |  | > 10000 nM | 2960 nM |  |
| COc1ccc(C(=O)c2c(C)n(CCN3CCNCC3)c3ccccc23)cc1 |  | > 10000 nM |  |  |
| CC(CN1CCOCC1)n1cc(C(=O)c2cccc3ccccc23)c2ccccc21 (racemic; form 1) |  |  | 114 nM | 60 nM |
| Cc1cccc(C(=O)c2c(C)n(CCN3CCOCC3)c3ccccc23)c1C |  |  | 373 nM |  |
| Cc1c(C(=O)c2ccc(F)cc2)c2ccccc2n1CCN1CCOCC1 | 12% |  |  |  |
| Cc1ccc(C(=O)c2c(C)n(CCN3CCOCC3)c3ccccc23)cc1C |  |  | 140 nM |  |
| Cc1c(C(=O)c2cccc3ccoc23)c2ccccc2n1CCN1CCOCC1 |  | 17 nM | 71 nM |  |
| COc1ccc(C(=O)c2c(C)n(CCN3CCS(=O)(=O)CC3)c3ccccc23)cc1 | -4% |  |  |  |
| Cc1ccc2c(C(=O)c3cccc4ccccc34)c(C)n(CCN3CCOCC3)c2c1 |  | 15 nM | 11 nM |  |
| O=C(c1cccc2ccccc12)c1cn(CCCN2CCOCC2)c2ccccc12 |  | 9.8 nM | 43 nM |  |
| Cc1c(C(=O)c2cccc3ccccc23)c2ccccc2n1CCCN1CCOCC1 |  | 112 nM | 150 nM |  |
| COc1ccc(C(=O)c2cn(CCN3CCOCC3)c3ccccc23)c2ccccc12 |  |  | 1.4 nM |  |
| Cc1c(C(=O)c2coc3ccccc23)c2ccccc2n1CCN1CCOCC1 |  | 52 nM | 110 nM |  |
| COc1ccc(C(=O)c2c(C)n(CCN(C)C)c3ccccc23)cc1 | 11% |  |  |  |
| COc1ccc(C(=O)c2c(C)n(CCN3CCOCC3)c3cc(OC)ccc23)cc1 |  | > 10000 nM | 1450 nM |  |
| Cc1c(C(=O)c2ccc(Br)c3ccccc23)c2ccccc2n1CCN1CCOCC1 |  | 34 nM | 6.9 nM |  |
| Cc1c(C(=O)c2cccc3ncccc23)c2ccccc2n1CCN1CCOCC1 |  | 79 nM | 828 nM |  |

| Structure (SMILES) | inhibition [1] | IC50 ([2]; Mus musculus) | IC50 [3] | IC50 [2] |
| --- | --- | --- | --- | --- |
| Cc1c(C(=O)c2cccc(F)c2)c2ccccc2n1CCN1CCOCC1 | 38% |  |  |  |
| Cc1c(C(=O)c2cccc3ccccc23)c2ccccc2n1C(C)CN1CCOCC1 (racemic; form 1) [listing 2 of 2 here] |  |  |  | 56 nM |
| Cc1c(C(=O)c2c3ccccc3cc3ccccc23)c2ccccc2n1CCN1CCOCC1 |  | > 10000 nM |  |  |
| Cc1c(C(=O)c2ccc3occc3c2)c2ccccc2n1CCN1CCOCC1 |  | 126 nM | 357 nM |  |
| COc1ccc(C(=O)c2c(C)n(CCN3CCSCC3)c3ccccc23)cc1 |  |  | 622 nM |  |
| COc1ccc(C(=O)c2c(C)n(CC(C)N3CCOCC3)c3ccccc23)cc1 (stereo unspecified) |  | > 10000 nM |  |  |
| COc1ccc(C(=O)c2cn(CCN3CCOCC3)c3ccccc23)cc1 |  | 101 nM | 390 nM |  |
| COc1ccc(C(=O)c2c(C)n(CCN)c3ccccc23)cc1 |  | > 10000 nM |  |  |
| O=C(c1ccc2ncccc2c1)c1cn(CCN2CCOCC2)c2ccccc12 |  | 142 nM | 491 nM |  |
| Cc1c(C(=O)c2ccc3cccnc3c2)c2ccccc2n1CCN1CCOCC1 |  | 88 nM |  |  |
| Cc1ccc(C(=O)c2c(C)n(CCN3CCOCC3)c3ccccc23)cc1 |  | 442 nM | 1770 nM |  |
| Cc1c(C(=O)c2ccc3ccccc3n2)c2ccccc2n1CCN1CCOCC1 |  | 99 nM | 331 nM |  |
| Cc1c(C(=O)c2cccc(C#N)c2)c2ccccc2n1CCN1CCOCC1 | 1% |  |  |  |
| O=C(c1ccc2occc2c1)c1cn(CCN2CCOCC2)c2ccccc12 |  | 28 nM | 138 nM |  |
| Cc1c(C(=O)c2ccc3ccccc3c2)c2ccccc2n1CCN1CCOCC1 |  | 50 nM | 128 nM |  |
| O=C(c1ccc(O)c2ccccc12)c1cn(CCN2CCOCC2)c2ccccc12 |  |  | 3.4 nM |  |
| COc1ccc(C(=O)c2c(C)n(CCCCN3CCOCC3)c3ccccc23)cc1 |  | > 10000 nM |  |  |
| COc1ccc(C(=O)c2c(C)n(CCN3CCOCC3)c3c(F)cccc23)cc1 |  | 73 nM | 571 nM |  |
| Cc1c(C(=O)c2ccccc2O)c2ccccc2n1CCN1CCOCC1 | -2% |  |  |  |
| Cc1c(C(=O)c2ccccc2C#N)c2ccccc2n1CCN1CCOCC1 | 0% |  |  |  |
| COc1ccccc1C(=O)c1c(C)n(CCN2CCOCC2)c2ccccc12 |  | 91 nM | 800 nM |  |
| O=C(c1cccc2ccccc12)c1c(Cl)n(CCN2CCOCC2)c2ccccc12 |  | 6.1 nM | 10 nM |  |
| Cc1c(C(=O)c2cccc(Cl)c2)c2ccccc2n1CCN1CCOCC1 |  |  | 1320 nM |  |

| Structure (SMILES) | inhibition [1] | IC50 ([2]; Mus musculus) | IC50 [3] | IC50 [2] |
| --- | --- | --- | --- | --- |
| CC(CN1CCOCC1)n1cc(C(=O)c2cccc3ccccc23)c2ccccc21 (racemic; form 2) [listing 1 of 2 here] |  |  |  | 19 nM |
| CCCCCc1cc(O)c2c(c1)OC(C)(C)[C@@H]1CCC(C)=C[C@@H]21 [DRONABINOL] |  | 4 nM |  |  |
| CCCc1ccc(C(=O)c2c(C)n(CCN3CCOCC3)c3ccccc23)cc1 |  |  | 1130 nM |  |
| Cc1c(C(=O)c2cccc3ccccc23)c2ccccc2n1CCN1CCCCC1 |  | 66 nM | 37 nM |  |
| Cc1ccc(C(=O)c2cn(CCN3CCOCC3)c3ccccc23)c2ccccc12 |  | 3.6 nM | 2.8 nM |  |
| Cc1c(C(=O)c2ccc(C#N)c3ccccc23)c2ccccc2n1CCN1CCOCC1 |  | 15 nM | 15 nM |  |
| O=C(c1ccc2ccccc2c1)c1cn(CCN2CCOCC2)c2ccccc12 |  | 31 nM | 59 nM |  |
| CC(Cn1cc(C(=O)c2cccc3ccccc23)c2ccccc21)N1CCOCC1 (stereo unspecified) |  | 60 nM | 124 nM |  |
| COc1ccc(C(=O)c2c(C)n(CCN3CCOCC3)c3c(C)cccc23)cc1 |  | 178 nM | 1530 nM |  |
| Cc1ccc2c(C(=O)c3cccc4ccccc34)cn(CCN3CCOCC3)c2c1 |  | 1.7 nM | 3.5 nM |  |
| CC(CN1CCOCC1)n1cc(C(=O)c2cccc3ccccc23)c2ccccc21 (racemic; form 2) [listing 2 of 2 here] | 94% |  |  |  |
| O=C(c1cccc2ccccc12)c1cn(CCN2CCOCC2)c2ccc(Br)cc12 |  | 19 nM | 186 nM |  |
| CCc1c(C(=O)c2ccc(OC)cc2)c2ccccc2n1CCN1CCOCC1 |  | > 10000 nM |  |  |
| Cc1ccc(C(=O)c2c(C)n(CCN3CCOCC3)c3ccccc23)c2ccccc12 |  | 9.6 nM | 5.9 nM |  |
| Cc1c(C(=O)c2cccc3ccccc23)c2ccccc2n1CCN1CCOCC1 |  | 15 nM | 19 nM |  |
| Cc1c(C(=O)c2ccnc3ccccc23)c2ccccc2n1CCN1CCOCC1 |  | 115 nM | 283 nM |  |
| Cc1c(C(=O)c2cccc3ccccc23)c2ccc(Br)cc2n1CCN1CCOCC1 |  |  | 10 nM |  |
| COc1ccc(C(=O)c2c(C)n(CC[N+]3(C)CCOCC3)c3ccccc23)cc1 |  | 4310 nM |  |  |
| Cc1c(C(=O)c2cccc3ccccc23)c2ccccc2n1C(C)CN1CCOCC1 (racemic; form 2) |  |  | 13 nM | 11 nM |
| COc1ccc(C(=O)c2c(C)n(CCN3CCOCC3)c3cc(Br)ccc23)cc1 |  | > 10000 nM | 515 nM |  |
| O=C(c1cn(CCN2CCOCC2)c2ccccc12)C1CCCc2ccccc21 (stereo unspecified) |  | 11 nM | 38 nM |  |
| Cc1c(C(=O)c2cccc3ccccc23)c2ccccc2n1CCN1CCOCC1C (stereo unspecified) |  | 207 nM | 384 nM |  |
